Measurements published in patent publication US20170136008A1, “OXABICYCLOHEPTANES AND OXABICYCLOHEPTENES FOR THE TREATMENT OF OVARIAN CANCER” (priority 2014, published 2017).

Key:
[1] = test system: SKOV-3 ovarian cancer cells; test: MTT cytotoxicity assay, SKOV-3; type: cell-based, human
[2] = test system: BRCA1, Wee1, Chk1, γH2AX phosphorylation in SKOV-3 tumors; test: Ex-vivo western blot of intraperitoneal tumors; type: in vivo, mouse; settings: LB100 alone 1.5 mg/kg, 4 h
Protocol: Whole cell and homogenized tumor tissues were lysed in NP-40 lysis buffer [50 mM Tris/HCl, pH 7.4, 150 mM NaCl and 1% Nonidet P40, supplemented with Complete Protrase Inhibitor Cocktail tablets and PhosStop phosphatase inhibitors (Roche, Indianapolis, Ind.)] and prepared as previously described (Madigan, J. P. et al. 2009). Protein (40 μg) was resolved on SDS/PAGE (12% or 15% gels) and transferred onto Immobilon PVDF membrane. The membrane was then blocked for 1 hour at room temperature in 5% (w/v) non-fat milk in TBS-Tween and probed overnight with primary antibodies. […]
Five- to seven-week-old female nude athymic mice (nu/nu) were obtained from NCI (Frederick, Md.), maintained in accredited animal facilities and used as stipulated by the U.S. Public Health Service Policy on Humane Care and Use of Laboratory Animals, in accordance with institutional reviews (http://oacu.odnih.gov). […] Tumor growth was measured twice a week via bioluminescence imaging (BLI) as previously described (Bakhsheshian, J. et al. 2013). […] Relative intensity of the BLI signal for each mouse was calculated by dividing the total luminescence for each session by the total luminescence measured on day 1 of treatment. […] Toxicity of the treatment regimens was assessed by the degree of weight loss and the overall health status was continuously monitored by a veterinarian on staff. […]

[3] = test system: PEO6 ovarian cancer cell line; test: MTT cytotoxicity assay, PEO6; type: cell-based, human; settings: Homo sapiens, read-out: IC50, viability of ovarian cancer cell line
Protocol: SKOV-3 ovarian cancer cells were purchased from American Type Culture Collection (ATCC) (Manassas, Va.). SKOV-3 cells were cultured in McCoy's 5A medium (ATCC, Manassas, Va.) supplemented with 10% fetal bovine serum and 100 units/mL penicillin G sodium, 100 ug/mL streptomycin sulfate, and 292 μg/ml, L-glutamine (BioWhittaker, Wakersville, Md.). Luciferase-expressing cells were generated by infecting SKOV-3 cells with pCLNCX-luciferase retrovirus (SKOV-3-Luc) as previously reported (Wei, B. R. et al. 2009). Human OVCAR-8 ovarian cancer cells were provided by the National Cancer Institute (part of the NCI-60 collection). The PEO1, PEO4, and PEO6 ovarian cancer cell lines have previously been characterized (Langdon, S. P. et al. 1988) and were kindly provided by Dr. Ian Goldlust (National Center for Advancing Translational Sciences, Shady Grove, Md.). […]
Cell survival was measured by the 3-(4,5-dimethylthiazol-2-yl)-2,5-diphenyltetrazolium bromide (MTT, Invitrogen) assay. […] Absorbance values were determined at […] on a Spectra Max 250 spectrophotometer (Molecular Devices, Sunnyvale, Calif.). […] Cell viability was analyzed via the MTT assay as described above. […]

[4] = test system: DNA damage response, checkpoint and apoptosis proteins in SKOV-3 cells; test: Immunoblotting, SKOV-3 cells; type: cell-based, human
Protocol: (§1) Whole cell and homogenized tumor tissues were lysed in NP-40 lysis buffer [50 mM Tris/HCl, pH 7.4, 150 mM NaCl and 1% Nonidet P40, supplemented with Complete Protrase Inhibitor Cocktail tablets and PhosStop phosphatase inhibitors (Roche, Indianapolis, Ind.)] and prepared as previously described (Madigan, J. P. et al. 2009). Protein (40 μg) was resolved on SDS/PAGE (12% or 15% gels) and transferred onto Immobilon PVDF membrane. The membrane was then blocked for 1 hour at room temperature in 5% (w/v) non-fat milk in TBS-Tween and probed overnight with primary antibodies. After extensive washing, cells were probed with anti-rabbit or anti-mouse IgG-horseradish per oxidase (HRP)-conjugated secondary antibodies (Cell Signaling Technology, Danvers, Mass.) in blocking buffer for 1 h. Membranes were subsequently incubated in Immobilon Western blot Chemiluminescent HRP Substrate (Millipore) and developed on biomax XAR film (Kodak). Antibodies were purchased from Cell Signaling Technology: γH2AX (Ser139), p-Wee1 (Ser 642), Wee1, p-cdc2 (Tyr15), p-BRCA1 (Ser1524), p-Chk1 (Ser345), p-Chk1 (Ser317), Chk-1, phospho-Chk2 (Thr68), PP2Ac, cleaved caspase-3 (Asp175), cleaved PARP (Asp214), p-histone H3 (Ser10), p-ATR (Ser428), and p-(Ser)14-3-3 binding motif.

[5] = test system: p-Chk1 (S345) and apoptosis proteins in OVCAR-8 cells; test: Immunoblotting, OVCAR-8 cells; type: cell-based, human; settings: after 1 h cisplatin, recovery up to 8 h, vs media alone
Protocol: as §1, with “motif. […]” for “motif.”

In the case of `CN1CCN(C(=O)C2C(C(=O)O)[C@H]3CC[C@@H]2O3)CC1` (some centres unmarked) [LB100], the IC50 ([1]; Homo sapiens, SK-OV-3, SK-OV3, MTT, read-out: IC50, viability of ovarian cancer cell line) is reported as 10.1 ± 1.6 µM, the “fold less sensitive compared to the other ovarian lines” value ([1]; SKOV-3 vs other ovarian lines) is reported as 2 fold and the “phosphorylation of BRCA1, Wee1, Chk1, γH2AX” value [2] is reported as “induced hyperphosphorylation”. The IC50 [3] was 5.1 ± 0.2 µM, the “expression of p-Ser14-3-3 binding motifs compared to control treatment” value ([4]; LB100-treated SKOV-3 cells) was “widespread increased expression” and the “phosphorylation of γH2AX, Chk2, and BRCA1 at 24 h, and JNK at 72 h” value ([4]; SKOV-3, LB100) was “enhanced and prolonged”. For the same compound, the “phosphorylation of Wee-1 compared to control” value ([4]; SKOV-3, LB100 5 μM, 24 h) was “induced hyperphosphorylation” and the “phosphorylation of Chk1 at S345” value [5] was “significantly increased”.
